Experimental data published in US20170362243A1, “BIARYLETHER IMIDAZOPYRAZINE BTK INHIBITORS” (MERCK SHARP & DOHME CORP., priority 2014, published 2017).

Target: T1, BTK enzyme (recombinant full-length BTK, hBTK) (Homo sapiens, UniProt Q06187)
T1 construct: recombinant protein from baculovirus-transfected Sf9 cells: full-length BTK, 6HIS-tag cleaved; 6HIS (cleaved yes); made in house; host or cells: baculovirus-transfected Sf9 cells
Test: Btk enzyme activity assay, LANCE TR-FRET
Format: biochemical
Conditions: 50 pM hBTK, 2 μM biotin-A5-peptide, 25 μM ATP, 60 minute compound & enzyme incubation, read-out: BTK binding IC50
Procedure: BTK enzymatic activity was determined with the LANCE (Lanthanide Chelate Excite) TR-FRET (Time-resolved fluorescence resonance energy transfer) assay. In this assay, the potency (IC50) of each compound was determined from an eleven point (1:3 serial dilution; final compound concentration range in assay from 1 μM to 0.017 nM) titration curve using the following outlined procedure. To each well of a black non-binding surface Corning 384-well microplate (Corning Catalog #3820), 5 nL of compound (2000 fold dilution in final assay volume of 10 μL) was dispensed, followed by the addition of 7.5 μL of 1× kinase buffer (50 mM Hepes 7.5, 10 mM MgCl2, 0.01% Brij-35, 1 mM EGTA, 0.05% BSA & 1 mM DTT) containing 5.09 pg/μL (66.67 pM) of BTK enzyme (recombinant protein from baculovirus-transfected Sf9 cells: full-length BTK, 6HIS-tag cleaved). Following a 60 minute compound & enzyme incubation, each reaction was initiated by the addition of 2.5 μL 1× kinase buffer containing 8 μM biotinylated “A5” peptide (Biotin-EQEDEPEGDYFEWLE-NH2) (SEQ.ID.NO.: 1), and 100 μM ATP. The final reaction in each well of 10 μL consists of 50 pM hBTK, 2 μM biotin-A5-peptide, and 25 μM ATP. Phosphorylation reactions were allowed to proceed for 120 minutes. Reactions were immediately quenched by the addition of 20 uL of 1× quench buffer (15 mM EDTA, 25 mM Hepes 7.3, and 0.1% Triton X-100) containing detection reagents (0.626 nM of LANCE-Eu-W1024-anti-phosphoTyrosine antibody, PerkinElmer and 86.8 nM of Streptavidin-conjugated Dylight 650, Dyomics/ThermoFisher Scientific). After 60 minutes incubation with detection reagents, reaction plates were read on a PerkinElmer EnVision plate reader using standard TR-FRET protocol. Briefly, excitation of donor molecules (Eu-chelate:anti-phospho-antibody) with a laser light source at 337 nm produces energy that can be transferred to Dylight-650 acceptor molecules if this donor:acceptor pair is within close proximity. Fluorescence intensity at both 665 nm (acceptor) and 615 nm (donor) are measured and a TR-FRET ratio calculated for each well (acceptor intensity/donor intensity). IC50 values were determined by 4 parameter robust fit of TR-FRET ratio values vs. (Log10) compound concentrations.
The following Table 3 provides specific IC50 values for all the examples. The IC50 values set forth below were determined according to Assay method described above.

T1 sequence (Q06187 whole entry): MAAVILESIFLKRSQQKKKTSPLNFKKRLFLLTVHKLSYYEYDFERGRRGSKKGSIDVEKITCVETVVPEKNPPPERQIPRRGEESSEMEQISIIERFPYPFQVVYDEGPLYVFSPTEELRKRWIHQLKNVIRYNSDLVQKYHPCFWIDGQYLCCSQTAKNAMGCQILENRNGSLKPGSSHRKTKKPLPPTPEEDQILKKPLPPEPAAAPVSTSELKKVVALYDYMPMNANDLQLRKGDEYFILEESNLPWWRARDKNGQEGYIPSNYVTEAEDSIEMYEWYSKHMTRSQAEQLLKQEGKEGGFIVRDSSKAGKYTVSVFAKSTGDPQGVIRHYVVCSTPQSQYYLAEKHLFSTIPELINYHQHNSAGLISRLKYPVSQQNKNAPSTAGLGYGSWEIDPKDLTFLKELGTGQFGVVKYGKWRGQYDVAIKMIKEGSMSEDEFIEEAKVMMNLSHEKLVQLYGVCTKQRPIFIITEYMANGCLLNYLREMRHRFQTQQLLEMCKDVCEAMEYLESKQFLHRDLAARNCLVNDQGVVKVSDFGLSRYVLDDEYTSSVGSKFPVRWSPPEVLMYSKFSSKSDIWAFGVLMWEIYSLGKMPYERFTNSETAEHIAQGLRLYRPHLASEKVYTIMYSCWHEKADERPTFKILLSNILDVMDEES

IC50 [nM]	SMILES
19.5	CC(C)[C@@]1(C(=O)O)CC[C@H](c2nc(-c3ccc(Oc4cccc(F)c4)cc3)c3c(N)nccn23)C1 [Example 3, (1R,3S)-3-{8-amino-1-[4-(3-fluorophenoxy)phenyl]imidazo[1,5-a]pyrazin-3-yl}-1-(1-methylethyl)cyclo-pentanecarboxylic acid]
1.3	C[C@@]1(C(=O)O)CCC[C@H](c2nc(-c3ccc(Oc4ccccc4)cc3)c3c(N)nccn23)C1 [Example 15, (1R,3S)-3-[8-amino-1-(4-phenoxyphenyl)imidazo [1,5-a]pyrazin-3-yl]-1-methylcyclohexane-carboxylic acid]
1	Nc1nccn2c1c(-c1ccc(Oc3cccc(F)c3)cc1)nc2[C@H]1CC[C@H](C(=O)O)CC1 [Example 12, trans-4-{8-amino-1-[4-(3-fluorophenoxy)phenyl]imidazo[1,5-a]pyrazin-3-yl}cyclohexanecarboxylic acid]
0.23	CC1(C(=O)O)CCC(C)(c2nc(-c3ccc(Oc4ccccc4)cc3)c3c(N)nccn23)C1 (single isomer, unassigned) [Example 28, 3-[8-amino-1-(4-phenoxyphenyl)imidazo[1,5-a]pyrazin-3-yl]-1,3-dimethylcyclo-pentanecarboxylic acid (E1)]
14.3	Nc1nccn2c1c(-c1ccc(Oc3cccc(F)c3)cc1)nc2[C@H]1CC[C@@H](C(=O)O)CC1 [Example 11, cis-4-{8-amino-1-[4-(3-fluorophenoxy)phenyl]imidazo[1,5-a]pyrazin-3-yl}cyclohexanecarboxylic acid]
12.5	Nc1nccn2c(C3CCC(C(=O)O)O3)nc(-c3ccc(Oc4ccccc4)cc3)c12 (single isomer, unassigned) [Example 26, 5-[8-amino-1-(4-phenoxyphenyl)imidazo[1,5-a]pyrazin-3-yl]tetrahydrofuran-2-carboxylic acid (E1)]
5.9	C[C@]1(C(=O)O)CCC[C@@H](c2nc(-c3ccc(Oc4cccc(F)c4)cc3)c3c(N)nccn23)C1 [Example 13, (1S,3R)-3-{8-amino-1-[4-(3-fluorophenoxy)phenyl]imidazo[1,5-a]pyrazin-3-yl}-1-methylcyclohexanecarboxylic acid]
7.1	Nc1nccn2c([C@@H]3CCC[C@H](C(=O)O)C3)nc(-c3ccc(Oc4ccccc4)cc3)c12 [Example 9, (1S,3R)-3-[8-amino-1-(4-phenoxyphenyl)imidazo[1,5-a]pyrazin-3-yl]cyclohexanecarboxylic acid]
1.6	CC1(C(=O)O)CCCC(c2nc(-c3ccc(Oc4ccccc4)cc3)c3c(N)nccn23)C1 (stereo not drawn) [Example 10, 3-[8-amino-1-(4-phenoxyphenyl)imidazo [1,5-a]pyrazin-3-yl]-1-mehtylcyclohexane-carboxylic acid]
0.3	Nc1nccn2c(C34C5C6C3C3C4C5C63C(=O)O)nc(-c3ccc(Oc4ccccc4)cc3)c12 (stereo not drawn) [Example 23, 4-(8-amino-1-(4-phenoxyphenyl)imidazo[1,5-a]pyrazin-3-yl)cubane-1-carboxylic acid]
1.3	CC1(C(=O)O)CCC(C)(c2nc(-c3ccc(Oc4ccccc4)cc3)c3c(N)nccn23)C1 (single isomer, unassigned) [Example 29, 3-[8-amino-1-(4-phenoxyphenyl)imidazo[1,5-a]pyrazin-3-yl]-1,3-dimethylcyclo-pentanecarboxylic acid (E2)]
4.9	CCC[C@@]1(C(=O)O)CCC[C@@H](c2nc(-c3ccc(Oc4ccccc4)cc3)c3c(N)nccn23)C1 [Example 20, (1R,3R)-3-[8-amino-1-(4-phenoxyphenyl)imidazo[1,5-a]pyrazin-3-yl]-1-propylcyclohexane-carboxylic acid]
3.5	CC1(C)[C@@H](C(=O)O)C[C@H]1c1nc(-c2ccc(Oc3ccccc3)cc2)c2c(N)nccn12 [Example 18, (1 S,3R)-3-(8-amino-1-(4-phenoxyphenyl)imidazo[1,5-a]pyrazin-3-1)-2,2-dimethylcyclobutanecarboxylic acid]
0.14	Nc1nccn2c(C34CCCC(C(=O)O)(CC3)CC4)nc(-c3ccc(Oc4ccccc4)cc3)c12 [Example 21, 5-[8-amino-1-(4-phenoxyphenyl)imidazo[1,5-a]pyrazin-3-yl]bicyclo[3.2.2] nonane-1-carboxylic acid]
0.18	Nc1nccn2c([C@@H]3CCC[C@@H](C(=O)O)C3)nc(-c3ccc(Oc4ccccc4)cc3)c12 (relative stereo) [Example 30, Trans-3-(8-amino-1-(4-phenoxyphenyl)imidazo[1,5-a]pyrazin-3-yl)cyclohexanecarboxylic acid]

More lines, now with the values behind:

SMILES	IC50 [nM]
C[C@]1(C(=O)O)CC[C@H](c2nc(-c3ccc(Oc4ccccc4)cc3)c3c(N)nccn32)CC1 [Example 25, Trans-4-[8-amino-1-(4-phenoxyphenyl)imidazo[1,5-a]pyrazin-3-yl]-1-methylcyclohexane carboxylic acid]	12.3
Nc1nccn2c(C3CCC(C(=O)O)O3)nc(-c3ccc(Oc4ccccc4)cc3)c12 (single isomer, unassigned) [Example 27, 5-[8-amino-1-(4-phenoxyphenyl)imidazo[1,5-a]pyrazin-3-yl]tetrahydrofuran-2-carboxylic acid (E2)]	12.5
Nc1nccn2c(C34CCC(C(=O)O)(CC3)CC4)nc(-c3ccc(Oc4ccccc4)cc3)c12 [Example 6, 4-[8-amino-1-(4-phenoxyphenyl)imidazo[1,5-a]pyrazin-3-yl]bicyclo[2.2.2]octane-1-carboxylic acid]	0.09
CC(C)[C@]1(C(=O)O)CC[C@@H](c2nc(-c3ccc(Oc4cccc(F)c4)cc3)c3c(N)nccn23)C1 [Example 2, (1S,3R)-3-{8-amino-1-[4-(3-fluorophenoxy)phenyl]imidazo[1,5-a]pyrazin-3-yl}-1-(1-methylethyl)cyclo-pentanecarboxylic acid]	2
CCC[C@]1(C(=O)O)CCC[C@@H](c2nc(-c3ccc(Oc4ccccc4)cc3)c3c(N)nccn23)C1 [Example 19, (1S,3R)-3-[8-amino-1-(4-pheenoxyphenyl)imidazo[1,5-a]pyrazin-3-yl]-1-propylcyclohexane-carboxylic acid]	200
C[C@@]1(C(=O)O)CCC[C@H](c2nc(-c3ccc(Oc4cccc(F)c4)cc3)c3c(N)nccn23)C1 [Example 16, (1R,3S)-3-{8-amino-1-[4-(3-fluorophenoxy)phenyl]imidazo[1,5-a]pyrazin-3-yl}-1-methylcyclohexane-carboxylic acid]	3.3
Nc1nccn2c1c(-c1ccc(Oc3ccccc3)cc1)nc2[C@H]1CC[C@H](C(=O)O)CC1 [Example 17, trans-4-[8-amino-1-(4-phenoxyphenyl)imidazo [1,5-a]pyrazin-3-yl]cyclohexane-carboxylic acid]	0.5
CC(C)(C(=O)O)C1CCC(c2nc(-c3ccc(Oc4ccccc4)cc3)c3c(N)nccn23)C1 (stereo not drawn) [Example 7, 2-{3-[8-amino-1-(4-phenoxyphenyl)imidazo[1,5-a]pyrazin-3-yl]cyclopentyl}-2-methylpropanoic acid]	2.1
CC1(C)[C@@H](c2nc(-c3ccc(Oc4ccccc4)cc3)c3c(N)nccn23)CC[C@@]1(C)C(=O)O [Example 8, (1R,3S)-3-[8-amino-1-(4-phenoxyphenyl)imidazo [1,5-a]pyrazin-3-yl]-1,2,2-trimethylcyclopenta-carboxylic acid]	0.7
CC(C)C1(C(=O)O)CC[C@H](c2nc(-c3ccc(Oc4cccc(F)c4)cc3)c3c(N)nccn23)C1 (stereo in doubt) [Example 5, (1R,3S)-3-{8-amino-1-[4-(3-fluorophenoxy)phenyl]imidazo[1,5-a]pyrazin-3-yl}-1-(1-methylethyl)cyclo-pentanecarboxylic acid]	1.4
Nc1nccn2c(C34C=CC(C(=O)O)(CC3)CC4)nc(-c3ccc(Oc4ccccc4)cc3)c12 [Example 22, 4-[8-amino-1-(4-phenoxyphenyl)imidazo[1,5-a]pyrazin-3-yl]bicyclo[2.2.2]oct-2-ene-1-carboxylic acid]	0.26
CC(C)[C@@]1(C(=O)O)CCC(c2nc(-c3ccc(Oc4cccc(F)c4)cc3)c3c(N)nccn23)C1 (stereo in doubt) [Example 4, (1R,3S)-3-{8-amino-1-[4-(3-fluorophenoxy)phenyl]imidazo[1,5-a]pyrazin-3-yl}-1-(1-methylethyl)cyclo-pentanecarboxylic acid]	4.4
